We go through 30 molecules from patent US7939550B2, “Aminopyrazole derivatives, process for the preparation thereof, and composition for preventing or treating ischemic diseases containing the same” (Korea Research Institute of Chemical Technology, priority 2006, dated 2011).

Structures are written as SMILES.

This experiment deals with Cardiomyocyte cell line H9c2 cells. Description: Inhibitory effect on ischemic cell death (chemical hypoxia, DAPI staining). Format: cell-based. To be noted: Rattus norvegicus, derivative 10 μM in DMSO, 30 min pretreatment, then chemical hypoxia solution 1 to 2 hours, DAPI stain, fluorescence microscope, DMSO control 25.86385, read-out: Apoptosis (%). Here is the method: The aminopyrazole derivatives of the present invention were examined for ischemic cell death inhibitory effect in cells according to the following procedure.
Cardiomyocyte cell line H9c2 cells were cultured in DMEM (Dulbecco's modified Eagle's medium) supplemented with 10% fetal bovine serum and 1% penicillin/streptomycin (100× solution). The cells were grown in 35 mm dishes such that the number thereof becomes 1×10^4, and cultured at 37° C. for 48 hours in a CO2 incubator. The cells were treated with 0.1% DMSO only (control), or the solutions dissolving the derivatives of Examples 1 to 30 (10 μM) in DMSO respectively. After 30 minutes, the cells were washed with PBS, and continuously treated with the DMSO solution (control) or the above solutions dissolving the derivatives together with chemical hypoxia solution (106 mM NaCl, 4.4 mM KCl, 1 mM MgCl2, 38 mM NaHCO3, 2.5 mM CaCl2, 20 mM 2-deoxy glucose, 1 mM NaCN) for 1 to 2 hours, while evaluating the cell damage by microscope. At the time when the sufficient damage were observed, the cells were washed with 1 ml of PBS twice, and then treated to fix with 1 ml of 3.7% formaldehyde. The cells obtained were washed with 1 ml of PBS again, stained with DAPI, and then washed with 1 ml of PBS in three times. The cell death of the cells was observed by a fluorescence microscope, and the degree of the observed cell death was converted to percentages.

In the case of `COC(=O)c1nn(CCc2ccccc2)cc1NC(=O)CSc1ccc(Br)cc1` [Example 1, 4-[2-(4-bromo-phenylsulfanyl)-acetylamino]-1-phenethyl-1H-pyrazole-3-carboxylic acid methyl ester], the cytotoxicity at 10 µM amounted to 5.79%. Under `COC(=O)c1nn(CCc2ccccc2)cc1NC(=O)CSc1ccccc1` [Example 2, 4-[2-(phenylsulfanyl)-acetylamino]-1-phenethyl-1H-pyrazole-3-carboxylic acid methyl ester] stands 11%; under `COC(=O)c1nn(CCc2ccccc2)cc1NC(=O)CSc1cccc(OC)c1` [Example 3, 4-[2-(3-methoxy-phenylsulfanyl)-acetylamino]-1-phenethyl-1H-pyrazole-3-carboxylic acid methyl ester], 8.26%. Under `COC(=O)c1nn(CCc2ccccc2)cc1NC(=O)CSc1ccc([N+](=O)[O-])cc1` [Example 4, 4-[2-(4-nitro-phenylsulfanyl)-acetylamino]-1-phenethyl-1H-pyrazole-3-carboxylic acid methyl ester] stands 3.74%. The figure for `COC(=O)c1nn(CCc2ccccc2)cc1NC(=O)CSc1ccccc1N` [Example 5, 4-[2-(2-amino-phenylsulfanyl)-acetylamino]-1-phenethyl-1H-pyrazole-3-carboxylic acid methyl ester] is 6.48%; for `COC(=O)c1nn(CCc2ccccc2)cc1NC(=O)CSc1ccc(C)cc1` [Example 6, 4-[2-(4-methyl-phenylsulfanyl)-acetylamino]-1-phenethyl-1H-pyrazole-3-carboxylic acid methyl ester] it is 5.43%. In the case of `COC(=O)c1nn(CCc2ccccc2)cc1NC(=O)CSc1ccc(F)cc1` [Example 7, 4-[2-(4-fluoro-phenylsulfanyl)-acetylamino]-1-phenethyl-1H-pyrazole-3-carboxylic acid methyl ester], the cytotoxicity at 10 µM came out at 6.49%. The figure for `COC(=O)c1nn(CCc2ccccc2)cc1NC(=O)CSc1ccccn1` [Example 8, 4-[2-(2-pyridylsulfanyl)-acetylamino]-1-phenethyl-1H-pyrazole-3-carboxylic acid methyl ester] is 5.65%; for `COC(=O)c1nn(CCc2ccccc2)cc1NC(=O)C[S+]([O-])c1ccccn1` (stereo not drawn) [Example 9, 4-[2-(2-pyridylsulfinyl)-acetylamino]-1-phenethyl-1H-pyrazole-3-carboxylic acid methyl ester] it is 3.74%; for `COC(=O)c1nn(CCc2ccccc2)cc1NC(=O)CS(=O)(=O)c1ccccn1` [Example 10, 4-[2-(2-pyridylsulfonyl)-acetylamino]-1-phenethyl-1H-pyrazole-3-carboxylic acid methyl ester] it is 7.27%. As for `COC(=O)c1nn(CCc2ccccc2)cc1NC(=O)CSc1ccc(C)c(C)c1` [Example 11, 4-[2-(3,4-dimethyl-phenylsulfanyl)-acetylamino]-1-phenethyl-1H-pyrazole-3-carboxylic acid methyl ester], the cytotoxicity at 10 µM was found to be 15.7%. Under `COC(=O)c1nn(Cc2ccccc2)cc1NC(=O)CSc1ccc(Br)cc1` [Example 12, 4-[2-(4-bromo-phenylsulfanyl)-acetylamino]-1-benzyl-1H-pyrazole-3-carboxylic acid methyl ester] stands 11.5%; under `COC(=O)c1nn(Cc2ccccc2)cc1NC(=O)CSc1ccccc1` [Example 13, 4-[2-phenylsulfanylacetylamino]-1-benzyl-1H-pyrazole-3-carboxylic acid methyl ester], 9.81%; under `COC(=O)c1nn(C)cc1NC(=O)CSc1ccc(Br)cc1` [Example 14, 4-[2-(4-bromo-phenylsulfanyl)-acetylamino]-1-methyl-1H-pyrazole-3-carboxylic acid methyl ester], 13.3%.

On to `COC(=O)c1nn(C)cc1NC(=O)CSc1ccccc1` [Example 15, 4-[2-phenylsulfanylacetylamino]-1-methyl-1H-pyrazole-3-carboxylic acid methyl ester], for which the cytotoxicity at 10 µM was found to be 11.3%. Under `COC(=O)c1c(NC(=O)CSc2ccc(Br)cc2)cnn1CCc1ccccc1` [Example 16, 4-[2-(4-bromo-phenylsulfanyl)-acetylamino]-2-phenethyl-2H-pyrazole-3-carboxylic acid methyl ester] stands 10.8%; under `COC(=O)c1c(NC(=O)CSc2ccc(Br)cc2)cnn1C` [Example 17, 4-[2-(4-bromo-phenylsulfanyl)-acetylamino]-2-methyl-2H-pyrazole-3-carboxylic acid methyl ester], 13.9%; under `COC(=O)c1nn(CCc2ccccc2)cc1NC(=O)CCSc1ccc(Br)cc1` [Example 18], 8.75%. The figure for `CCOC(=O)c1cnn(CCc2ccccc2)c1NC(=O)CSc1ccc(Br)cc1` [Example 19, 5-[2-(4-bromo-phenylsulfanyl)-acetylamino]-1-phenethyl-1H-pyrazole-4-carboxylic acid ethyl ester] is 8.19%. Under `COC(=O)c1nn(CCc2ccccc2)cc1NC(=O)C(Sc1ccc(Br)cc1)c1ccccc1` (stereo not drawn) [Example 20, 4-[2-(4-bromo-phenylsulfanyl)-2-phenyl-acetylamino]-1-phenethyl-1H-pyrazole-3-carboxylic acid methyl ester] stands 6.07%; under `COC(=O)c1cc(NC(=O)CSc2ccc(Br)cc2)n(C)n1` [Example 21, 5-[2-(4-bromo-phenylsulfanyl)-acetylamino]-1-methyl-1H-pyrazole-3-carboxylic acid methyl ester], 8.33%; under `COC(=O)c1cc(NC(=O)CSc2ccccc2)n(C)n1` [Example 22, 1-methyl-5-(2-phenylsulfanyl-acetylamino)-1H-pyrazole-3-carboxylic acid methyl ester], 10.7%.

For the molecule `O=C(CSc1ccc(Br)cc1)Nc1cn(CCc2ccccc2)nc1C(=O)O` [Example 23, 4-[2-(4-bromo-phenylsulfanyl)-acetylamino]-1-phenethyl-1H-pyrazole-3-carboxylic acid], the cytotoxicity at 10 µM was 7.76%. Regarding `O=C(CSc1ccc(Br)cc1)Nc1cn(CCc2ccccc2)nc1C1=NCCO1` [Example 24, 2-(4-bromo-phenylsulfanyl)-N-[3-(4,5-dihydro-oxazol-2-yl)-1-phenethyl-1H-pyrazol-4-yl]-acetamide], the cytotoxicity at 10 µM was determined as 12.7%.

For `NC(=O)c1nn(CCc2ccccc2)cc1NC(=O)CSc1ccc(Br)cc1` [Example 25, 4-[2-(4-bromo-phenylsulfanyl)-acetylamino]-1-phenethyl-1H-pyrazole-3-carboxylic acid amide], the cytotoxicity at 10 µM came to 6.07%.

As for `O=C(CSc1ccc(Br)cc1)Nc1cn(CCc2ccccc2)nc1CO` [Example 26, 2-(4-bromo-phenylsulfanyl)-N-(3-hydroxymethyl-1-phenethyl-4H-pyrazol-4-yl)-acetamide], the cytotoxicity at 10 µM worked out at 7.27%. Under `COC(=O)c1nn(CCc2ccccc2)cc1NC(=O)CCc1ccccc1` [Example 27, 4-[3-phenyl-propionylamino]-1-phenethyl-4H-pyrazole-3-carboxylic acid methyl ester] stands 5.08%. Under `COC(=O)c1nn(CCc2ccccc2)cc1NC(=O)COc1ccc(Br)cc1` [Example 28, 4-[2-(4-bromophenoxy)-acetylamino]-1-phenethyl-1H-pyrazole-3-carboxylic acid methyl ester] stands 3.74%. Under `COC(=O)c1nn(CCc2ccccc2)cc1NC(=O)CNc1ccc(Br)cc1` [Example 29, 4-[2-(4-bromo-phenylamino)-acetylamino]-1-phenethyl-1H-pyrazole-3-carboxylic acid methyl ester] stands 9.31%; under `COCc1nn(CCc2ccccc2)cc1NC(=O)CSc1ccc(Br)cc1` [Example 30, 2-(4-bromo-phenylsulfanyl)-N-(3-methoxymethyl-1-phenethyl-1H-pyrazol-4-yl)-acetamide], 5.22%.
